Several values for one entry are separate records, joined by “and”; a condition that tells them apart may be missing. Equal values may be shown once. Non-standard residues stand in square brackets, D forms with d. Residues, ends and D or L forms follow the SMILES beside them.
What was measured:
[1] = system: malnourished subjects with CKD; test: Phase II CKD: abnormal and clinically significant clinical chemistry and blood gas values; type: in vivo, human; conditions: for Subjects with abnormal and clinically significant ALT (%) / Subjects with abnormal and clinically significant AST (%) / Subjects with abnormal and clinically significant Calcium (%) / Subjects with abnormal and clinically significant Chloride (%) / Subjects with abnormal and clinically significant Creatinine (%) / Subjects with abnormal and clinically significant GGT (%) / Subjects with abnormal and clinically significant Phosphate (%) / Subjects with abnormal and clinically significant Potassium (%) / Subjects with abnormal and clinically significant Sodium (%) / Subjects with abnormal and clinically significant Urea (%): safety analysis set
Text: The number of subjects with abnormal and clinically significant laboratory values at baseline and at Day 28 is presented in Table 35 (haematology) and Table 36 clinical chemistry. Overall, the number of subjects with abnormal and clinically significant laboratory values was similar in the GHRH(1-29)NH2 synthetic analog and placebo groups. No clear trends were observed.

[2] = system: Sprague-Dawley rats; conditions: rat, in vivo
Protocol: In order to assess such use of the GHRH analogs, the following experiments were undertaken. More specially, the goal was to assess the pharmacodynamic and pharmacokinetic profiles and acute toxicity of GHRH analog #5 when administered once by subcutaneous or intravenous injection to female Sprague-Dawley rats followed by a 14-day observation period and the pharmacodynamic profile in a male Beagle dog when the GHRH analog was administered at escalating doses to the same dog by subcutaneous injection with at least 2-day washout period. The above GHRH analog is a variation of a synthetic acetate salt of an amidated synthetic 29-amino acid peptide that corresponds to the amino-terminal segment of the naturally-occurring human growth hormone—releasing hormone (GHRH) with four amino acid substitutions in positions 2, 10, 15, and 22.
Human GHRH analog #5 in 0.9% sodium chloride for injection USP was administered once either by intravenous (IV) or subcutaneous (SC) injection to female rats followed by a 14-day observation period, as shown in Table 2. Prior to administration, all dosing formulations were filtered using a 0.22 μm filter to ensure sterility. The actual amount of GHRH analog #5 administered was calculated and adjusted based on the animal's most recent body weight. Dosing started at approximately the same time each day, commencing at 9:00 am ±30 minutes.

[3] = system: endogenous GH secretion; test: Phase II CKD: 24-hour GH profile and deconvolution; type: in vivo, human
Protocol: Blood samples for assessment of GH secretion had to be taken over 24 hours because the release of endogenous GH was pulsatile and not consistent throughout the day. Much of endogenous GH release is closely coupled to periods of slow-wave sleep, and the bulk of GH secretion usually occurs between midnight and 4 am. […] To document clearly the effect of the GHRH(1-29)NH2 synthetic analog on endogenous GH secretion, the following protocol had been designed: first, baseline endogenous GH secretion was assessed on Day 0 by sampling blood every 20 minutes for 20 hours and every 10 minutes for 4 hours. At the end of this sampling period (in the afternoon of Day 1), the first injection of the GHRH(1-29)NH2 synthetic analog was given. At the end of the 4-week treatment period (Day 28), GH secretion was reassessed by another 24-hour secretion profile. This profile started at 8:30 am with the morning injection of the GHRH(1-29)NH2 synthetic analog. Blood was collected every 10 minutes for the first 4 hours, followed by sampling every 20 minutes for the next 20 hours; this period included the afternoon injection of the GHRH(1-29)NH2 synthetic analog. In this way, it was possible to assess the evolution of both the pituitary's immediate GHRH response and that of time-integrated 24-hour GH secretion over extended treatment.
On Day 0 (baseline) and Day 28, subjects commenced 24-hour sampling at 10 and 20-minute intervals to construct a GH profile. […] The cannula was flushed with heparin-saline solution after each blood withdrawal to prevent clotting. Immediately before each blood collection, the residual heparin-saline volume instilled in the cannula was withdrawn with 0.5 mL blood in a separate syringe. This volume was reinjected after collection of the sample used for GH analysis.
At the baseline visit, blood sampling for the 24-hour GH profile commenced on Day 0 by taking samples at 20-minute intervals for 20 hours. Immediately at the end of this period, on the morning of Day 1, samples were taken at 10-minute intervals for 4 hours. The first dose of investigational product was not given before the end of the 24-hour GH profile period. On Day 28, samples were taken pre-dose, at 10-minute intervals for the first 4 hours (at the same time of day as the 4-hour period on Day 1) and at 20-minute intervals thereafter for a further 20 hours.
Samples were analysed for GH at the Department of Nephrology, Endocrinology and Metabolic Diseases, Silesian University School of Medicine, Katowice, Poland using a commercial kit.

[4] = GH deconvolution, ITT, Baseline
[5] = GH deconvolution, ITT, Day 28, vs placebo

CC[C@H](C)[C@H](NC(=O)[C@H](C)NC(=O)[C@H](CC(=O)O)NC(=O)[C@@H](C)NC(=O)[C@@H](N)Cc1ccc(O)cc1)C(=O)N[C@@H](Cc1ccccc1)C(=O)N[C@H](C(=O)N[C@@H](CC(N)=O)C(=O)N[C@@H](CO)C(=O)N[C@H](Cc1ccc(O)cc1)C(=O)N[C@@H](CCCNC(=N)N)C(=O)N[C@@H](CCCCN)C(=O)N[C@H](C(=O)N[C@@H](CC(C)C)C(=O)N[C@H](C)C(=O)N[C@@H](CCC(N)=O)C(=O)N[C@@H](CC(C)C)C(=O)N[C@@H](CO)C(=O)N[C@@H](C)C(=O)N[C@@H](CCCNC(=N)N)C(=O)N[C@@H](CCCCN)C(=O)N[C@@H](CCCCN)C(=O)N[C@@H](CC(C)C)C(=O)N[C@@H](CCC(N)=O)C(=O)N[C@@H](CC(=O)O)C(=O)N[C@H](C(=O)N[C@@H](CCSC)C(=O)N[C@@H](CO)C(=O)N[C@@H](CCCNC(=N)N)C(N)=O)[C@@H](C)CC)C(C)C)[C@@H](C)O [GHRH analog #5, [D-Ala^2, D-Tyr^10, D-Ala^15, Lys^22] hGHRH(1-29)-NH2] (H-Y[dA]DAIFTNS[dY]RKVL[dA]QLSARKKLQDIMSR-NH2)
Subjects with abnormal and clinically significant ALT (%) ([1]; Baseline): (0.0%)
Subjects with abnormal and clinically significant AST (%) ([1]; Baseline): (0.0%)
Subjects with abnormal and clinically significant Calcium (%) ([1]; Baseline): (0.0%)
Subjects with abnormal and clinically significant Chloride (%) ([1]; Baseline): (0.0%)
Subjects with abnormal and clinically significant Creatinine (%) ([1]; Baseline): (100.0%)
Subjects with abnormal and clinically significant GGT (%) ([1]; Baseline): (0.0%)
Subjects with abnormal and clinically significant Phosphate (%) ([1]; Baseline): (7.7%)
Subjects with abnormal and clinically significant Potassium (%) ([1]; Baseline): (30.8%)
Subjects with abnormal and clinically significant Sodium (%) ([1]; Baseline): (0.0%)
Subjects with abnormal and clinically significant Urea (%) ([1]; Baseline): (100.0%)
Number of subjects with abnormal and clinically significant bicarbonate ([1]; Day 28): 3 subjects
Number of subjects with abnormal and clinically significant calcium ([1]; Day 28): 3 subjects
Subjects with abnormal and clinically significant ALT (%) ([1]; Day 28): (8.3%)
Subjects with abnormal and clinically significant AST (%) ([1]; Day 28): (8.3%)
Subjects with abnormal and clinically significant Calcium (%) ([1]; Day 28): (25.0%)
Subjects with abnormal and clinically significant Chloride (%) ([1]; Day 28): (0.0%)
Subjects with abnormal and clinically significant Creatinine (%) ([1]; Day 28): (100.0%)
Subjects with abnormal and clinically significant GGT (%) ([1]; Day 28): (8.3%)
Subjects with abnormal and clinically significant Phosphate (%) ([1]; Day 28): (16.7%)
Subjects with abnormal and clinically significant Potassium (%) ([1]; Day 28): (25.0%)
Subjects with abnormal and clinically significant Sodium (%) ([1]; Day 28): (0.0%)
Subjects with abnormal and clinically significant Urea (%) ([1]; Day 28): (100.0%)
Number of subjects with abnormal and clinically significant bicarbonate ([1]; baseline): 2 subjects
Number of subjects with abnormal and clinically significant calcium ([1]; baseline): none
Treatment-related clinical signs [2]: No treatment-related clinical signs were observed
1st component half-life: median [3, 4]: 6 min
2nd component half-life: median [3, 4]: 16 min
% pulsatile secretion rate: mean (SD) [3, 4]: 79.02 (9.09) %
Basal secretion rate: median [3, 4]: 27 mU/L/24 h
Inter-pulse regularity: mean (SD) [3, 4]: 2.35 (0.63)
Mass per pulse: mean (SD) [3, 4]: 11.30 (7.02) mU/L
Mean pulse frequency (per 24 h): mean (SD) [3, 4]: 8.09 (2.81) per 24 h
Number of pulses: mean (SD) [3, 4]: 8.8 (3.2)
Pulsatile secretion rate: median [3, 4]: 100 mU/L/24 h
Time from onset to peak of burst: mean (SD) [3, 4]: 32.8 (3.9) min
Total secretion rate: median [3, 4]: 120 mU/L/24 h
1st component half-life: median ([3]; GH deconvolution, ITT, Day 28): 2 min
2nd component half-life: comparison vs placebo ([3]; GH deconvolution, ITT, Day 28): 4.8
2nd component half-life: median ([3]; GH deconvolution, ITT, Day 28): 26 min
% pulsatile secretion rate: comparison vs placebo ([3]; GH deconvolution, ITT, Day 28): −0.4
% pulsatile secretion rate: mean (SD) ([3]; GH deconvolution, ITT, Day 28): 71.27 (16.24) %
Basal secretion rate: median ([3]; GH deconvolution, ITT, Day 28): 98 mU/L/24 h
Inter-pulse regularity: comparison vs placebo ([3]; GH deconvolution, ITT, Day 28): −0.0
Inter-pulse regularity: mean (SD) ([3]; GH deconvolution, ITT, Day 28): 1.95 (0.30)
Mass per pulse: comparison vs placebo ([3]; GH deconvolution, ITT, Day 28): 26.5
Mass per pulse: mean (SD) ([3]; GH deconvolution, ITT, Day 28): 43.88 (36.16) mU/L
Mean pulse frequency (per 24 h): mean (SD) ([3]; GH deconvolution, ITT, Day 28): 9.07 (3.49) per 24 h
Mean pulse frequency: comparison vs placebo ([3]; GH deconvolution, ITT, Day 28): 0.8
Number of pulses: comparison vs placebo ([3]; GH deconvolution, ITT, Day 28): 0.3
Number of pulses: mean (SD) ([3]; GH deconvolution, ITT, Day 28): 9.7 (3.7)
Pulsatile secretion rate: median ([3]; GH deconvolution, ITT, Day 28): 378 mU/L/24 h
Time from onset to peak of burst: comparison vs placebo ([3]; GH deconvolution, ITT, Day 28): −4.5
Time from onset to peak of burst: mean (SD) ([3]; GH deconvolution, ITT, Day 28): 27.3 (4.7) min
Total secretion rate: median ([3]; GH deconvolution, ITT, Day 28): 495 mU/L/24 h
Basal secretion rate: comparison or ratio of means [3, 5]: 2.53
Pulsatile secretion rate: comparison or ratio of means [3, 5]: 2.81
Total secretion rate: comparison or ratio of means [3, 5]: 2.72
GH AUC first 4 hours: increase from baseline to day 28 ([3]; ITT): 1137%
GH AUC at 4 h: median ([3]; ITT, Baseline): 315 μIU/mL × min
GH AUC at 24 h: median ([3]; ITT, Baseline): 3473 μIU/mL × min
GH SD at 4 h: median ([3]; ITT, Baseline): 1.0 μIU/mL
GH SD at 24 h: median ([3]; ITT, Baseline): 2.9 μIU/mL
GH concentration at 4 h: median ([3]; ITT, Baseline): 1.3 μIU/mL
GH concentration at 24 h: median ([3]; ITT, Baseline): 2.1 μIU/mL
Mean concentration of GH secreted during the first 4 hours ([3]; ITT, Baseline): 1.72 μIU/ml
GH AUC at 4 h: median ([3]; ITT, Day 28): 3891 μIU/mL × min
GH AUC at 24 h: difference vs placebo ([3]; ITT, Day 28): 11585 μIU/mL × min
GH AUC at 24 h: median ([3]; ITT, Day 28): 16753 μIU/mL × min
GH SD at 4 h: median ([3]; ITT, Day 28): 11.6 μIU/mL
GH SD at 24 h: median ([3]; ITT, Day 28): 13.3 μIU/mL
GH concentration at 4 h: median ([3]; ITT, Day 28): 16.2 μIU/mL
GH concentration at 24 h: comparison vs placebo ([3]; ITT, Day 28): 9.5
GH concentration at 24 h: median ([3]; ITT, Day 28): 12.5 μIU/mL
GH AUC at 4 h: ratio ([3]; ITT, Day 28, vs placebo): 9.5 and 9.49
GH SD at 4 h: comparison or ratio of means ([3]; ITT, Day 28, vs placebo): 6.97
GH SD at 24 h: comparison or ratio of means ([3]; ITT, Day 28, vs placebo): 3.92
GH concentration at 4 h: ratio ([3]; ITT, Day 28, vs placebo): 9.50
Mean GH concentration first 4 hours: increase ([3]; ITT, baseline to day 28): 1136%
Mean concentration of GH secreted during the first 4 hours ([3]; ITT, day 28): 21.26 μIU/ml
Mean amount of GH secreted in 24 hours (AUC) ([3]; baseline): 3770.62 μIU/ml×min
Mean basal GH secretion rate ([3]; baseline): 26.9 mU/L/24 h
Mean concentration of GH ([3]; baseline): 2.49 μIU/ml
Mean 24-hour GH AUC: increase ([3]; baseline to day 28): 393%
Mean amount of GH secreted in 24 hours (AUC) ([3]; day 28): 18579.9 μIU/ml×min

Source: patent US20090088380A1, “GHRH ANALOGS AND THERAPEUTIC USES THEREOF” (priority 2007, published 2009)
